What is called pKi is the Ki on a negative log10 scale, so that one unit is a factor of ten. By Km is commonly meant the substrate concentration at which the rate is half of its maximum.

Experimental findings from PMC12172042, “Metabolic Activation versus Masked Prodrugs: Bisubstrate Mimic Inhibitors of CoaBC’s PPCS Activity in Mycobacterium tuberculosis and Staphylococcus aureus” (ACS Infectious Diseases, 2025) are described below.

pKi: −log10 of the molar value.

Data set [1] has as its target T1, SaCoaBC (Staphylococcus aureus, UniProt Q2G268).
T1 construct: gene coaBC
The data set is described as follows: coupled pyrophosphate assay with Morrison tight-binding fit; formed in situ from P-CJ and CTP; CD melting shift ~[…] °C. Format: biochemical.

For data set [2], the target named is T2, MtCoaBC (Mycobacterium tuberculosis, UniProt P9WNZ1).
T2 construct: gene coaBC
The data set is described as follows: coupled pyrophosphate assay with Morrison tight-binding fit; formed in situ from P-CJ and CTP; CD melting shift […] °C. Format: biochemical.

The test system of data set [3] is CC(C)(COP(=O)(O)O)[C@@H](O)C(=O)NCCC(=O)O. The data set is described as follows: purified protein. Particulars: CTP (MgCTP).

T1 sequence (Q2G268 entry or part of it): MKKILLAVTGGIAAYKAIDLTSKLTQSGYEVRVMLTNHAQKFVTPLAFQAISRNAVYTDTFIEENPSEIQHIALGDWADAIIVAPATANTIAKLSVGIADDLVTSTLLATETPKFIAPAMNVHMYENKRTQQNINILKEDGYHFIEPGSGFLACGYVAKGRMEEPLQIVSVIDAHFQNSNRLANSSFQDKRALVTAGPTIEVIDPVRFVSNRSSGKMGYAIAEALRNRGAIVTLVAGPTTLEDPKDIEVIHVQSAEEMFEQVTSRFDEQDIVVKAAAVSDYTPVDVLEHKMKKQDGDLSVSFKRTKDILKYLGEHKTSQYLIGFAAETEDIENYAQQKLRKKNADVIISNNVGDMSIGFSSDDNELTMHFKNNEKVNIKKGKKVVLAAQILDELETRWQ
T2 sequence (P9WNZ1 whole entry): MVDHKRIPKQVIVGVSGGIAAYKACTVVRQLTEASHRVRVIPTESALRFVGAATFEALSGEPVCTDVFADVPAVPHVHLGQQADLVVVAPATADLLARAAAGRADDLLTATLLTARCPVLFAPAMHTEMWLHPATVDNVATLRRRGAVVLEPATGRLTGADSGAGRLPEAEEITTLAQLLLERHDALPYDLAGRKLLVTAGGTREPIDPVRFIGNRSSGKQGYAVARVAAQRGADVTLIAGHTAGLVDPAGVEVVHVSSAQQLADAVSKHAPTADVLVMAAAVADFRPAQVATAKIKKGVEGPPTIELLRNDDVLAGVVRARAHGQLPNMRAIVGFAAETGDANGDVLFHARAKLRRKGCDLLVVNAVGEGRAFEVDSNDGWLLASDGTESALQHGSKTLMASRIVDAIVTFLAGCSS

Turning to `CC(C)(COP(=O)(O)O)[C@@H](O)C(=O)N/C=C/C(=O)OP(=O)(O)OC[C@H]1O[C@@H](n2ccc(N)nc2=O)[C@H](O)[C@@H]1O` [compound 11, P-CJ-CMP], the results for the pKi in data set [1] and in data set [2] were 7.49 and 7.23, respectively.
With “MtCoaBC (Mycobacterium tuberculosis H37Rv)”, in data set [3], the Km is 33.2 ± 4.2 µM.
